Experimental data taken from patent US4612330A, “Antiinflammatory method” (Eli Lilly and Company, priority 1985, dated 1986).

Legend:
[1] = test system: adjuvant-induced arthritis in rats, uninjected hind paw; experiment: Developing adjuvant-induced arthritis test in rats: uninjected hind paw volume; type: in vivo, male Lewis-Wistar rats; conditions: 10 mg/kg I.P. × 29 daily doses; difference of areas under the curves of mean uninjected paw volumes, TB controls vs treated
[2] = test system: hind paws of rats; experiment: carrageenin-induced edema test; type: in vivo; conditions: for inhibition of paw swelling: 50 mg/kg, administered prior to carrageenin, vs contralateral (control) paws; for anti-inflammatory activity (in words): carrageenin-induced edema, rats
Description: It has now been discovered that Punaglandin-1 and -2 are useful in the treatment of inflammation and arthritis in mammals. […] A. Winter, Proc. Soc. Exp. Biol. Med., 111, 544 (1962). In this method, inflammation is induced by injecting carrageenin into one of the hind paws of rats. Test compounds were administered prior to the carrageenin injection to determine the percent inhibition of the subsequent inflammation, in comparison with the animals' contralateral (control) paws.

Which results are given for `CC/C=C\C/C=C\CC1(O)C=C(Cl)C(=O)C1C(OC(C)=O)C(OC(C)=O)C(CCCC(=O)OC)OC(C)=O` (centres unmarked) [Punaglandin-1, 5,6,7-tris(acetyloxy)-7-(4-chloro-2-hydroxy-2-[2(Z),5(Z)-octadienyl]-5-oxo-3-cyclopenten-1-yl)heptanoic acid, methyl ester]?
% Inhibition of Uninjected Paw Volume Inflammation, Days 16 through 30 [1]: 56.7%; inhibition of paw swelling ([2]; intraperitoneal): 79.6%; inhibition of paw swelling ([2]; subcutaneous): 62.1%; anti-inflammatory activity (in words) [2]: anti-inflammatory activity

With `CCCCC/C=C\CC1(O)C=C(Cl)C(=O)C1C(OC(C)=O)C(OC(C)=O)C(CCCC(=O)OC)OC(C)=O` (centres unmarked) [Punaglandin-2, 5,6,7-tris(acetyloxy)-7-(4-chloro-2-hydroxy-2-[2-(Z)-octenyl]-5-oxo-3-cyclopenten-1-yl)heptanoic acid, methyl ester] as the compound, how does the “anti-inflammatory activity (in words)” value [2] read?
Its value is “anti-inflammatory activity”.
